Experimental data from patent US4418068A, “Antiestrogenic and antiandrugenic benzothiophenes” (Eli Lilly and Company, priority 1981, dated 1983).

Assays:
estrogenic response [1] = experiment: Estrogenic Response Test, immature rats (uterine weight); assay type: in vivo, immature 40-45 g. female rats; settings: s.c.
Protocol: (§1) The first test reported below is used to determine the estrogenic potency of compounds. It is well known that many compounds having antiestrogenic activity also, typically, have estrogenic activity. As has been explained, estrogenic activity is a liability in an antiestrogen, and thus it is important to identify antiestrogens having a minimum amount of estrogenic activity. This test was conducted with immature 40-45 g. female rats, immature 11-13 g. mice, and adult ovariectomized mice. The rats were tested in groups of six, and mice in groups of ten. All of the laboratory animals were from standardized strains and were equilibrated to the laboratory before the test started. Each test was begun by administering the test compound daily for three days, as a subcutaneous injection or by oral gavage, as indicated below in the reports of individual experiments. Untreated control animals were included in each experiment, along with animals to which estradiol was administered subcutaneously. The estradiol-treated animals provided positive controls, showing the physiological effect of a potent estrogen on the individual group of animals used in the experiment. […] The test animals were treated for three days and sacrificed on the fourth day, and the uteri were removed, freed of extraneous tissue, and blotted with paper towels. The uteri were weighed to the nearest 0.1 mg. The tables below report the results of representative experiments. The doses of estradiol and of the compound of this invention are given as the total of the three daily doses. The uterine weights are given, in mg., as the means of all of the organ weights of the animals in a group. Compounds are referred to by their example numbers above.

[2] = test system: estrogenic response of estradiol; experiment: Antiestrogenic Test, immature rats (uterine weight); assay type: in vivo; settings: Experiment I, 3 mg., s.c. + estradiol 0.3 mcg.
Protocol: (§2) This test was conducted with immature 40-45 g. female rats, immature 11-13 g. mice, and adult ovariectomized mice. The rats were tested in groups of six, and mice in groups of ten. All of the laboratory animals were from standardized strains and were equilibrated to the laboratory before the test started. Each test was begun by administering the test compound daily for three days, as a subcutaneous injection or by oral gavage, as indicated below in the reports of individual experiments.
(§3) The test animals were treated for three days and sacrificed on the fourth day, and the uteri were removed, freed of extraneous tissue, and blotted with paper towels. The uteri were weighed to the nearest 0.1 mg.
(§4) The uterine weights are given, in mg., as the means of all of the organ weights of the animals in a group. Compounds are referred to by their example numbers above.
(§5) The same standardized types of laboratory animals which were used in the experiments described above were also used in these experiments. […] Untreated control animals were used in each experiment. […] The dosage and sacrifice schedule, and the method of determining uterine weights and reporting data, were the same as the methods described above under Test 1.

[3] = Stability of the product on observation after several days; assay type: physicochemical
[4] = test system: DMBA-induced mammary tumors; experiment: Tests Against DMBA-Induced mammary tumors; assay type: in vivo, adult female virgin rats; settings: Experiment D
Source text: Mammary tumors were induced in adult female virgin rats by a single 20-mg. oral dose of 7,12-dimethylbenzanthracene. Within about six weeks, visible and palpable tumors were present in the mammary tissue of the rats, and the rats were allocated into treatment and control groups in such a way that each group contained animals having approximately the same size and number of tumors. The size of the tumors was estimated by measuring their cross-sectional area. […]
[…] The treated animals received 1 mg./kg. per day of 6-methoxy-2-(4-hydroxyphenyl)-3-[4-(2-piperidinoethoxy)benzoyl]benzo[b]thiophene, hydrochloride, as a subcutaneous injection in corn oil. The animals were not ovariectomized at the end of the experiment.

[5] = test system: androgen-stimulated prostate growth; experiment: Anti-Androgen Test, adult castrated male rats (ventral prostate weight); assay type: in vivo; settings: Experiment A; androgen only, testosterone propionate 0.1 mg./day s.c., 7 days, castrated
Protocol: The antiandrogenic property of the compounds was evaluated in the following tests, in which the compound of Example 3 was used again.
(§6) The animals used in this test were adult male rats having a body weight which averaged about 330 g. when the experiment ended. All of the animals to be used in the experiment were castrated by the scrotal route, and were held untreated for 3 days. On the fourth day, subcutaneous administration of 0.1 mg./day of an exogenous androgen, testosterone propionate, was begun, and was continued for seven consecutive days. An untreated control group of animals received injections of 0.1 ml./day of corn oil as a blank treatment. The compound of this invention was administered orally or subcutaneously to the treated animals in 0.1 ml. of corn oil, at the same time that the androgen was administered. The animals were sacrificed 24 hours after the last injection of testosterone propionate, the ventral prostate glands were removed and weighed, and the mean of the weights of each treatment group was reported. The table below reports the mean weights resulting from administration of various doses of the compound along with androgen.
Each treatment group of animals in this experiment consisted of seven to nine animals, except for the untreated control group, which contained twelve animals.

[6] = test system: androgen-stimulated prostate growth; experiment: Anti-Androgen Test, immature male rats (ventral prostate weight); assay type: in vivo; settings: androgen only 20 mcg./day s.c.
Protocol: as §6, with “reported.” for “reported. The table below reports the mean weights resulting from administration of various doses of the compound along with androgen.”
This experiment was carried out in the same manner as Experiment A above, except that the test animals were immature male rats, weighing about 120 g. each at sacrifice. Each treatment group consisted of six or seven animals. All treatments in this experiment were administered by subcutaneous injection. The amount of the androgen administered was only 20 mcg./day because of the small size of the animals.
This experiment was also conducted in immature rats having average body weight of about 115 g. when the experiment ended. In other respects, the experiment was as described under Experiment B above. The treatment groups consisted of ten animals each, except for the androgen only group, of 16 animals, and the 5 mg./kg. group, of nine animals.

estrogenic response [7] = settings: Black and Goode 1980; cited from earlier work
estrogenic response [8] = experiment: Estrogenic Response Test, mature ovariectomized mice (uterine weight); assay type: in vivo, adult ovariectomized mice; settings: Experiment E, s.c.
Protocol: as §1

estrogenic response [9] = experiment: Estrogenic Response Test, immature mice (uterine weight); assay type: in vivo, immature 11-13 g. mice; settings: Experiment D, s.c.
Protocol: as §1

estrogenic response [10] = experiment: Regression Test: reversal of established estrogenic response (uterine weight); assay type: in vivo, immature rats; settings: estradiol alone 0.1 mcg./day s.c.
Protocol: The following test was carried out to determine if the compounds of this invention could reverse an estrogenic response, when administration of the compound was started after the estrogenic response had become established.
The test animals were immature rats, and all administrations were by subcutaneous injection.
The mean uterine weights of these groups of animals, respectively, were 97.9, 97.3, 119.9 and 112.3 mg.
The animals were sacrificed on the fifth day and their mean uterine weight was 56.4 mg.
The animals were sacrificed on the seventh day and their mean uterine weight was 57.0 mg.

[11] = test system: estrogenic response of estradiol; experiment: Antiestrogenic Test, mature ovariectomized mice (uterine weight); assay type: in vivo, adult ovariectomized mice; settings: Experiment A; estradiol alone 0.3 mcg., s.c.
Protocol: as §2, §3, §4, §5

[12] = test system: estrogenic response of estradiol; experiment: Antiestrogenic Test, immature mice (uterine weight); assay type: in vivo; settings: Experiment B; estradiol alone 0.3 mcg., s.c.
Protocol: as §2, §3, §4, §5

uterine epithelial cells = settings: known side-effect of earlier anti-estrogens; cited from earlier work
[13] = 1 mg./kg. per day s.c., fifth week

CCCCCCCCCCCC(=O)Oc1ccc(-c2sc3cc(OC(=O)CCCCCCCCCCC)ccc3c2C(=O)c2ccc(OCCN3CCCCC3)cc2)cc1 [Example 11, 6-dodecanoyloxy-2-(4-dodecanoyloxyphenyl)3-[4-(2-piperidinoethoxy)benzoyl]benzo[b]thiophene]
Uterine weight (estrogenic response [1]; Experiment C, total dose 3 mg.): 37.1 mg
Uterine weight [2]: 40.0 mg

O=C(O)C(F)(F)F.O=C(c1ccc(OCCN2CCCCC2)cc1)c1c(-c2ccc(OC(=O)C(F)(F)F)cc2)sc2cc(OC(=O)C(F)(F)F)ccc12 [Example 9, 6-trifluoroacetoxy-2-(4-trifluoroacetoxyphenyl)-3-[4-(2-piperidinoethoxy)benzoyl]benzo[b]thiophene, trifluoroacetate]
Uterine weight (estrogenic response [1]; Experiment C, total dose 3 mg.): 31.3 mg
Uterine weight [2]: 38.1 mg
hydrolysis of ester groups [3]: some hydrolysis of one or both ester groups had occurred

COc1ccc2c(C(=O)c3ccc(OCCN4CCCCC4)cc3)c(-c3ccc(O)cc3)sc2c1.Cl [Example 19, 6-Methoxy-2-(4-hydroxyphenyl)-3-[4-(2-piperidinoethoxy)benzoyl]benzo[b]thiophene, hydrochloride]
animals with completely regressed tumors ([4]; 1 mg./kg. per day s.c. in corn oil, fourth week): three of the eight treated animals had completely regressed
completely regressed animals [4, 13]: three completely regressed animals
tumor area, upper end of range (single tumor) [4, 13]: ≤ 1974 sq. mm.
average tumor area, other seven treated animals ([4]; 1 mg./kg. per day s.c., fifth week, animal with burst tumors excluded): 398 square millimeters
tumor area of one animal (largest) ([4]; 1 mg./kg. per day s.c., four weeks): 3764 sq. mm.
average tumor area of the other seven animals ([4]; 1 mg./kg. per day s.c., four weeks, animal with 3764 sq. mm. ignored): 254 sq. mm.
average total tumor area of the treated group ([4]; 1 mg./kg. per day s.c., four weeks, eight animals): 692 square millimeters

CCC(=O)O[C@H]1CC[C@H]2[C@@H]3CCC4=CC(=O)CC[C@]4(C)[C@H]3CC[C@]12C [Androgen, testosterone propionate, reference compound]
Mean Prostate Weight [5]: 309 mg
Mean Prostate Weight ([6]; Experiment B): 48.7 mg
Mean Prostate Weight ([6]; Experiment C): 43.5 mg

COc1ccc(-c2sc3cc(OC)ccc3c2C(=O)c2ccc(OCCN3CCCCC3)cc2)cc1.Cl [Example 14, 6-methoxy-2-(4-methoxyphenyl)-3-[4-(2-piperidinoethoxy)benzoyl]benzo[b]thiophene, hydrochloride]
Uterine weight (estrogenic response [1]; Experiment C, total dose 3 mg.): 35.1 mg
Uterine weight [2]: 37.5 mg

O=C(c1ccc(OCCN2CCCC2)cc1)c1c(-c2ccc(O)cc2)sc2cc(O)ccc12 [6-hydroxy-2-(4-hydroxyphenyl)-3-[4-(2-pyrrolidinoethoxy)benzoyl]benzo[b]thiophene]
antiestrogenic effectiveness vs tamoxifen or trioxifene (estrogenic response [7]): considerably more effective as an antiestrogen
estrogenicity vs tamoxifen or trioxifene (estrogenic response [7]): considerably less estrogenic

Cl.O=C(Oc1ccc(-c2sc3cc(OC(=O)c4ccccc4)ccc3c2C(=O)c2ccc(OCCN3CCCCC3)cc2)cc1)c1ccccc1 [Example 13, 6-benzoyloxy-2-(4-benzoyloxyphenyl)-3-[4-(2-piperidinoethoxy)benzoyl]benzo[b]thiophene, hydrochloride]
Uterine weight (estrogenic response [1]; Experiment C, total dose 3 mg.): 39.6 mg
Uterine weight [2]: 41.1 mg

CCOC(=O)Oc1ccc(-c2sc3cc(OC(=O)OCC)ccc3c2C(=O)c2ccc(OCCN3CCCCC3)cc2)cc1 [Example 12, 6-ethoxycarbonyloxy-2-(4-ethoxycarbonyloxyphenyl)-3-[4-(2-piperidinoethoxy)benzoyl]benzo[b]thiophene]
Uterine weight (estrogenic response [1]; Experiment C, total dose 3 mg.): 35.8 mg
Uterine weight [2]: 31.8 mg

CC(=O)Oc1ccc(-c2sc3cc(OC(C)=O)ccc3c2C(=O)c2ccc(OCCN3CCCCC3)cc2)cc1 [Example 10, 6-acetoxy-2-(4-acetoxyphenyl)-3-[4-(2-piperidinoethoxy)benzoyl]benzo[b]thiophene]
Uterine weight (estrogenic response [1]; Experiment C, total dose 3 mg.): 30.8 mg
Uterine weight [2]: 32.2 mg

C[C@]12CC[C@@H]3c4ccc(O)cc4CC[C@H]3[C@@H]1CC[C@@H]2O [Estradiol, reference compound]
Uterine weight (estrogenic response [1]; Experiment A, total dose 0.3 mcg.): 74.6 mg
Uterine weight (estrogenic response [1]; Experiment B, total dose 0.3 mcg.): 56.8 mg
Uterine weight (estrogenic response [1]; Experiment C, total dose 0.3 mcg.): 63.1 mg
Uterine weight (estrogenic response [8]; total dose 0.03 mcg.): 25.8 mg
Uterine weight (estrogenic response [8]; total dose 0.1 mcg.): 44.2 mg
Uterine weight (estrogenic response [8]; total dose 0.3 mcg.): 65.9 mg
Uterine weight (estrogenic response [9]; total dose 0.03 mcg.): 33.3 mg
Uterine weight (estrogenic response [9]; total dose 0.09 mcg.): 48.2 mg
Uterine weight (estrogenic response [9]; total dose 0.3 mcg.): 50.3 mg
mean uterine weight (estrogenic response [10]; eight days): 112.3 mg
mean uterine weight (estrogenic response [10]; four days): 97.3 mg
mean uterine weight (estrogenic response [10]; six days): 119.9 mg
mean uterine weight (estrogenic response [10]; three days): 97.9 mg
Uterine weight [11]: 65.9 mg
Uterine weight [12]: 50.3 mg

CC/C(=C(\c1ccccc1)c1ccc(OCCN(C)C)cc1)c1ccccc1 [Tamoxifen, 1-(4-β-dimethylaminoethoxyphenyl)-1,2-diphenylbut-1-ene]
effect on uterine epithelial cells (uterine epithelial cells): causes abnormal growth of uterine epithelial cells
